± gives the expanded uncertainty stated by the source.
Key:
[1] = Liquid; for mass density: 293.15 K, 101.33 kPa
[2] = refractive index (Na D-line) (dimensionless); conditions: 293.15 K; 101.33 kPa; Liquid

Structure (SMILES) | mass density [1] [kg/m3] | refractive index [2] | further results
ClC(Cl)C(Cl)Cl [1,1,2,2-tetrachloroethane] | 1593 ± 4.5 | 1.494 ± 0.0017 | vapor or sublimation pressure ([1]; 417.35 K): 95.75 ± 9 kPa
ClCCCl [1,2-dichloroethane] | 1252.9 ± 3.4 | 1.4196 ± 0.0017 | vapor or sublimation pressure ([1]; 355.25 K): 95.75 ± 9 kPa
Cc1ccccc1C [1,2-dimethylbenzene] | 880.1 ± 2.2 | 1.5055 ± 0.0017 | vapor or sublimation pressure ([1]; 415.55 K): 95.75 ± 9 kPa
Cc1cccc(C)c1 [1,3-dimethylbenzene] | 864.4 ± 2.1 | 1.4972 ± 0.0017 | vapor or sublimation pressure ([1]; 410.35 K): 95.75 ± 9 kPa
Cc1ccc(C)cc1 [1,4-dimethylbenzene] | 861 ± 2.1 | 1.4858 ± 0.0017 | vapor or sublimation pressure ([1]; 409.35 K): 95.75 ± 9 kPa
Cc1ccccc1O [2-methylphenol] | 1046 ± 2.7 | 1.5467 ± 0.0017 | vapor or sublimation pressure ([1]; 461.85 K): 95.75 ± 9.6 kPa
CCCCCCC [heptane] | 683.8 ± 1.5 | 1.3876 ± 0.0017 | vapor or sublimation pressure ([1]; 369.75 K): 95.75 ± 9 kPa
ClC(Cl)=C(Cl)Cl [tetrachloroethene] | 1625 ± 4.6 | 1.505 ± 0.0017 | vapor or sublimation pressure ([1]; 392.25 K): 95.75 ± 9 kPa
ClC=C(Cl)Cl [trichloroethene] | 1464 ± 4.1 | 1.4782 ± 0.0017 | vapor or sublimation pressure ([1]; 357.95 K): 95.75 ± 9 kPa
